The results in this text go back to patent US20060211887A1, “Phosphate salts of 6-dimethylaminomethyl-1-(3-methoxyphenyl)-1,3-dihydroxy-cyclohexane compounds” (priority 2005, published 2006).

A short description of this data set: Storage at defined relative atmospheric humidity (approx. 75% or 95%, then approx. 4%) with thermogravimetric analysis, weighing and X-ray powder diffractometry. It is filed as physicochemical. The note with it: for % pt during / % pt after / % pt (middle): vs before storage; for Form during / Form after / Form middle: X-ray powder diffractometry; for Laboratory after: storage step approx. 4 (±5) % r.h. approx. 20 h; for Laboratory during %: storage step approx. 75 (±5) % r.h. approx. 7 days; for Laboratory during: storage step approx. 95 (±5) % r.h. approx. 7 days. The text has this: Storage of the hydrochloride salts, which are not according to the invention (identified H1 to H3 in the following examples of compounds; for the synthesis see the subsequent experimental part), at room temperature over saturated sodium chloride solution results in a relative atmospheric humidity of approx. 75% (±5%). Storage of the samples at room temperature over saturated potassium sulfate solution results in a relative atmospheric humidity of approx. 95% (±5%).
Storage of the samples at room temperature over drying beads (blau+, Engelhardt, Nienburg) results in a relative atmospheric humidity of approx. 4% (±5%).
The samples were stored at approx. 75% relative atmospheric humidity for approx. 8.5 days. The samples were then stored at a relative atmospheric humidity of approx. 4% for a further approx. 6 h.
They were analyzed for their loss in weight by means of thermogravimetric analyses (amount of sample approx. 5-20 mg, heating rate approx. 10 K/min, heating range from approx. 25° C. to approx. 240° C.).
The approximate difference in the moisture content (in percentage points; % pt) from after the storage to before the particular storage step is stated.
In addition, the percentage change in the total weight of the sample occurring in the respective storage step was determined by weighing (“laboratory”).
The crystalline form was determined by means of X-ray powder diffractometry.
The samples were stored at approx. 95% relative atmospheric humidity for approx. 8.5 days. The samples were then stored at a relative atmospheric humidity of approx. 4% for a further approx. 6 h.
The approximate difference in the moisture content (in percentage points; % pt) from after the storage to before the storage is stated.
The samples were stored at approx. 75% relative atmospheric humidity for approx. 7 days. The samples were then stored at a relative atmospheric humidity of approx. 4% for a further approx. 2.5 days.
The approximate difference in the moisture content (in percentage points; % pt) from after the storage step to before the storage is stated.
The samples were stored at approx. 95% relative atmospheric humidity for approx. 7 days. The samples were then stored at a relative atmospheric humidity of approx. 4% for a further approx. 7 days.
Storage of the phosphate salts I-P according to the invention, called samples in the following, at room temperature over saturated sodium chloride solution results in a relative atmospheric humidity of approx. 75 (±5) % . Storage of the samples at room temperature over saturated potassium sulfate solution results in a relative atmospheric humidity of approx. 95 (±5) %.
Storage of the samples at room temperature over drying beads (blau+, Engelhardt, Nienburg) results in a relative atmospheric humidity of approx. 4 (±5) %.
The samples were stored at approx. 75 (±5) % relative atmospheric humidity for approx. 8.5 days. The samples were then stored at a relative atmospheric humidity of approx. 4 (±5) % for a further approx. 6 h.
The samples were stored at approx. 95 (±5) % relative atmospheric humidity for approx. 8.5 days. The samples were then stored at a relative atmospheric humidity of approx. 4 (±5) % for a further approx. 6 h.
The samples were stored at approx. 75 (±5) % relative atmospheric humidity for approx. 7 days. The samples were then stored at a relative atmospheric humidity of approx. 4 (±5) % for a further approx. 20 h.
The samples were stored at approx. 95 (±5) % relative atmospheric humidity for approx. 7 days. The samples were then stored at a relative atmospheric humidity of approx. 4 (±5) % for a further approx. 20 h.
Sample P3 was kept in the laboratory for approx. 55 minutes under ambient conditions before the second storage step.
The interpretation of the specified data is explained again in more detail by the example of the data for P1 given in the preceding Table 8:
Storage of 1: • first storage step: 95% atmospheric humidity • second storage step: 4% atmospheric humidity […]

Where [1] appears, read: after approx. 75 (±5) % r.h. approx. 7 days.
Where [2] appears, read: after approx. 95 (±5) % r.h. approx. 7 days.
Where [3] appears, read: approx. 75 (±5) % r.h. approx. 7 days, then approx. 4 (±5) % approx. 20 h.
[4] abbreviates: approx. 75 (±5) % r.h. approx. 8.5 days, then approx. 4 (±5) % approx. 6 h.
Setting [5] is: approx. 95 (±5) % r.h. approx. 7 days, then approx. 4 (±5) % approx. 20 h.
Setting [6] is: approx. 95 (±5) % r.h. approx. 8.5 days, then approx. 4 (±5) % approx. 6 h.
Setting [7] is: after approx. 75% r.h. approx. 7 days.
The mark [8] stands for this setting: after approx. 95% r.h. approx. 7 days.
Setting [9] is: approx. 75% r.h. approx. 7 days, then approx. 4% approx. 2.5 days.
[10] abbreviates: approx. 75% r.h. approx. 8.5 days, then approx. 4% approx. 6 h.
Where [11] appears, read: approx. 75% relative atmospheric humidity approx. 8.5 days, then approx. 4% approx. 6 h.
The mark [12] stands for this setting: approx. 95% r.h. approx. 7 days, then approx. 4% approx. 7 days.
The mark [13] stands for this setting: approx. 95% r.h. approx. 8.5 days, then approx. 4% approx. 6 h.

“Also recorded” adds a separate entry of the source.

As for `COc1cccc([C@@]2(O)C[C@H](O)CC[C@@H]2CN(C)C)c1` (racemic) [Sample P1, (1RS,3RS,6RS)-6-dimethylaminomethyl-1-(3-methoxyphenyl)-cyclohexane-1,3-diol], the Laboratory during % is −0.08%. Moreover, under setting [1], the “% pt during” value is listed as −0.21 % pt and the Form during result is “form A”. Besides, under setting [2], the “% pt during” value is −0.19 % pt and the Form during entry was “form A”. Besides, under “after second storage step at ca. 4% atmospheric humidity”, the “Weight loss TG (afterwards)” value is reported as −4.38%. The “Weight loss TG (intermediate)” value (after storage at 95% atmospheric humidity approx. 7 days) is listed as −4.55%. For the same molecule, under setting [3], the “% pt after” value was −0.04 % pt and the Form after entry is “form A”. Under setting [4], the “% pt” value was −0.05 % pt, the “Laboratory (percentage change in total weight by weighing)” value is −0.01% and the Form after result was “form A”. Further, under setting [5], the “% pt after” value was −0.02 % pt and the Form after entry is “form A”. Under setting [6], the “% pt” value is listed as −0.22 % pt, the “Laboratory (percentage change in total weight by weighing)” value is “+0.12%” and the Form after entry was “form A”. For the same molecule, the “Weight loss TG (beforehand)” value (before storage, thermogravimetry approx. 25-240° C.) is listed as −4.36%. The Laboratory after entry (after 75% r.h. 7 days) is listed as “+0.07%”. For the same molecule, under “after 95% r.h. 7 days”, the Laboratory after is reported as −0.04%.
Consider `COc1cccc([C@@]2(O)C[C@H](O)CC[C@@H]2CN(C)C)c1` (racemic) [Sample P2, (1RS,3RS,6RS)-6-dimethylaminomethyl-1-(3-methoxyphenyl)-cyclohexane-1,3-diol], for which the Laboratory during % result was “+0.02%” and the Laboratory during entry is reported as “+0.52%”. In addition, under setting [1], the “% pt during” value is on record as −0.42 % pt and the Form during result was “form A”. Also, under setting [2], the “% pt during” value was −0.24 % pt and the Form during entry was “form A”. Under setting [3], the “% pt after” value was −0.44 % pt and the Form after result is recorded as “form A”. Also, under setting [4], the “% pt” value is listed as −0.17 % pt, the “Laboratory (percentage change in total weight by weighing)” value is given as “+0.06%” and the Form after entry is “form A”. In addition, under setting [5], the “% pt after” value was −0.21 % pt and the Form after entry is “form A”. Moreover, under setting [6], the “% pt” value was −0.25 % pt, the “Laboratory (percentage change in total weight by weighing)” value is recorded as “+0.02%” and the Form after entry is recorded as “form A”. For the same molecule, under “after 75% r.h. 7 days”, the Laboratory after entry is reported as “+0.08%”. Further, the Laboratory after (after 95% r.h. 7 days) is on record as −0.60%.
Consider `COc1cccc([C@@]2(O)C[C@H](O)CC[C@@H]2CN(C)C)c1` (racemic) [Sample P3, (1RS,3RS,6RS)-6-dimethylaminomethyl-1-(3-methoxyphenyl)-cyclohexane-1,3-diol], for which the Laboratory during % result is reported as “+0.23%” and the Laboratory during came to 5.33%. Under setting [1], the “% pt during” value is reported as −0.25 % pt and the Form during result is reported as “form A”. Under setting [2], the “% pt during” value is “+0.21 % pt” and the Form during result is given as “form A”. For the same molecule, under setting [3], the “% pt after” value is recorded as −0.33 % pt and the Form after entry was “form A”. Under setting [4], the “% pt” value was −0.24 % pt, the “Laboratory (percentage change in total weight by weighing)” value was −0.47% and the Form after entry is reported as “form A”. For the same molecule, under setting [5], the “% pt after” value is recorded as “+0.27 % pt” and the Form after entry was “form A”. Besides, under setting [6], the “% pt” value was −0.25 % pt, the “Laboratory (percentage change in total weight by weighing)” value is on record as −0.39% and the Form after result was “form A”. Moreover, where the note is “after 75% r.h. 7 days”, the Laboratory after is −0.75%. For the setting “after 95% r.h. 7 days”, the Laboratory after is listed as −0.04%.
In the case of `COc1cccc(C2(O)CC(O)CCC2CN(C)C)c1` (centres unmarked) [Sample H1, 6-dimethylaminomethyl-1-(3-methoxyphenyl)-1,3-dihydroxy-cyclohexane], the “% pt (middle)” value is on record as −2.73 % pt under setting [7] and −4.88 % pt under setting [8]. For the same molecule, the Form middle entry by setting is: under setting [7], “form A,; also recorded: form B,; also recorded: form C,; also recorded: form D”; under setting [8], “form B”. Moreover, the “% pt after” value under setting [9] was 0.53 % pt and the “% pt after” value under setting [12] is reported as −3.84 % pt. The Form after result is, setting by setting: under setting [9], “form B,; also recorded: form A”; under setting [11], “form B, further”; under setting [12], “form B”; under setting [13], “form B, further”. Also, the “% pt (difference in the moisture content, thermogravimetry, after vs before storage)” value under setting [10] is on record as −1.22 % pt. Besides, the “Laboratory/% (percentage change in total weight by weighing)” value runs as follows: under setting [10], “+1.14%”; under setting [13], “+4.99%”. Besides, the “% pt (difference in the moisture content, thermogravimetry)” value under setting [13] is on record as −4.89 % pt. Besides, the “Laboratory/% (after)” value by setting is: (storage step approx. 4% r.h. approx. 2.5 days, after 75% r.h. 7 days) −1.24%; (storage step approx. 4% r.h. approx. 7 days, after 95% r.h. 7 days) −22.76%. The “Laboratory/% (middle)” value is 2.89% (storage step approx. 75% r.h. approx. 7 days) and “+13.72%” (storage step approx. 95% r.h. approx. 7 days).
On to `COc1cccc(C2(O)CC(O)CCC2CN(C)C)c1` (centres unmarked) [Sample H2, 6-dimethylaminomethyl-1-(3-methoxyphenyl)-1,3-dihydroxy-cyclohexane], for which, under setting [10], the “% pt (difference in the moisture content, thermogravimetry, after vs before storage)” value is −2.85 % pt and the “Laboratory/% (percentage change in total weight by weighing)” value is on record as “+2.61%”. Moreover, the Form after result under setting [11] was “form B, further”. Under setting [13], the “% pt (difference in the moisture content, thermogravimetry)” value is given as −4.95 % pt; the “Laboratory/% (percentage change in total weight by weighing)” value is on record as “+4.88%”; the Form after result is recorded as “form B, further”.
